In publication PMC4844575, “The influence of different metal-chelate conjugates of pentixafor on the CXCR4 affinity” (EJNMMI Research, 2016):
Where a SMILES comes first, the peptide text is derived from it. Side-chain parts run from the residue outwards. [ ]: non-standard residue; d: D form. The star is where a group is joined. DFO(CSNHC6H4NHCS) = CC(=O)N(O)CCCCCNC(=O)CCC(=O)N(O)CCCCCNC(=O)CCC(=O)N(O)CCCCCNC(=S)Nc1ccc(NC(=S)*)cc1; DOTAGA = O=C(O)CN1CCN(CC(=O)O)CCN(C(CCC(=O)*)C(=O)O)CCN(CC(=O)O)CC1; DOTA = O=C(O)CN1CCN(CC(=O)O)CCN(CC(=O)*)CCN(CC(=O)O)CC1; NODAGA = O=C(O)CN1CCN(CC(=O)O)CCN(C(CCC(=O)*)C(=O)O)CC1; X2 = O=C(O)CN1CCN(CC(=O)O)CCN(Cc2ccc(NC(=S)*)cc2)CC1; NOTA = O=C(O)CN1CCN(CC(=O)O)CCN(CC(=O)*)CC1; 2Nal = N[C@@H](Cc1ccc2ccccc2c1)C(=O)O; dNMeOrn = CN[C@H](CCCN)C(=O)O; 4Amb = NCc1ccc(C(=O)O)cc1

Test system: OH1 human small cell lung cancer tumor-bearing mice
Assay: not given
Conditions: mouse, in vivo, 1 h; cited from earlier work
For “cyclo(-D-Tyr-N-Me-D-Orn(aminomethylbenzoyl (AMB)-DOTA)-L-Arg-L-2-Nal-Gly-) [[^68Ga]pentixafor]”, the “uptake in CXCR4-expressing tissue (tumor)” value is given as 6.16 % ± 1.16 % ID/g.

Target: T1, CXCR4 (Homo sapiens, UniProt P61073)
T1 construct: endogenous in cells; host or cells: Jurkat T-cell leukemia cells
T1 sequence (P61073 whole entry): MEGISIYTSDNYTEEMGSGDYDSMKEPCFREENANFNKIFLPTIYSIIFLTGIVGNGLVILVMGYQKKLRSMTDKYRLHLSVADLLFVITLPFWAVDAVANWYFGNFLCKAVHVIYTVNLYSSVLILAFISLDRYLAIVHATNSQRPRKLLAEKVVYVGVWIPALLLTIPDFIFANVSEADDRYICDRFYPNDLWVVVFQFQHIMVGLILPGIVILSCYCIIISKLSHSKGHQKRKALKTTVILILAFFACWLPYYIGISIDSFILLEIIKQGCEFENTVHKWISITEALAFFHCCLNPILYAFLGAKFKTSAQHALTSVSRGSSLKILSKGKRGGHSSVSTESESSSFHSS
Assay: competitive binding assay on Jurkat cells with [125I]FC131 as radioligand
Conditions: not given
Protocol: For in vitro experiments, the Jurkat T - cell line was used. […] The cell line was cultured at 37 °C in a humidified atmosphere with 5 % CO2 and passaged two to three times a week, depending on the cell count.
Jurkat cells (4 × 10^5 cells per vial) were incubated with the respective peptide of interest at the final concentrations ranging from 10^−11 to 10^−5 M and app. […] The total sample volume was 250 μL. After an incubation time of 120 min, the vials were centrifuged at 1300 rpm (Heraeus Megafuge, Thermo) for 3 min and the supernatant was removed. The cells were washed twice with 200 μL ice-cold Hank’s balanced salt solution (HBSS). After each washing step, the samples were centrifuged and the supernatant removed. Finally, the amount of displaced and bound radioligand in the combined fractions of the supernatant and the cell pellet was quantified. The half maximal inhibitory concentration (IC50) values were determined using GraphPad Prism software.
Compound `CN1C(=O)[C@@H](Cc2ccc(O)cc2)NC(=O)CNC(=O)[C@H](Cc2ccc3ccccc3c2)NC(=O)[C@H](CCCNC(=N)N)NC(=O)[C@H]1CCCNC(=S)Nc1ccc(CN2CCN(CC(=O)O)CCN(CC(=O)O)CC2)cc1` [Compound 5] (cyclo([2Nal]G[dY][dNMeOrn](X2)R)) has an IC50 of 115 ± 24 nM.
For `CN1C(=O)[C@@H](Cc2ccc(O)cc2)NC(=O)CNC(=O)[C@H](Cc2ccc3ccccc3c2)NC(=O)[C@H](CCCNC(=N)N)NC(=O)[C@H]1CCCNC(=O)c1ccc(CNC(=S)Nc2ccc(CC(CN(CCN(CC(=O)O)CC(=O)O)CC(=O)O)N(CC(=O)O)CC(=O)O)cc2)cc1` (some centres unmarked) [Compound 7], the IC50 was 200 ± 73 nM.
In the case of `CN1C(=O)[C@@H](Cc2ccc(O)cc2)NC(=O)CNC(=O)[C@H](Cc2ccc3ccccc3c2)NC(=O)[C@H](CCCNC(=N)N)NC(=O)[C@H]1CCCNC(=O)c1ccc(CNC(=O)CN2CCN(CC(=O)O)CCN(CC(=O)O)CC2)cc1` [Compound 3] (cyclo([2Nal]G[dY][dNMeOrn]([4Amb-NOTA])R)), the IC50 is reported as 253 ± 49 nM.
`CC(=O)N(O)CCCCCNC(=O)CCC(=O)N(O)CCCCCNC(=O)CCC(=O)N(O)CCCCCNC(=S)Nc1ccc(NC(=S)NCc2ccc(C(=O)NCCC[C@@H]3C(=O)N[C@@H](CCCNC(=N)N)C(=O)N[C@@H](Cc4ccc5ccccc5c4)C(=O)NCC(=O)N[C@H](Cc4ccc(O)cc4)C(=O)N3C)cc2)cc1` [Compound 8] (cyclo([2Nal]G[dY][dNMeOrn]([4Amb-DFO(CSNHC6H4NHCS)])R)) gave an IC50 of 105 ± 35 nM.
For `CN1C(=O)[C@@H](Cc2ccc(O)cc2)NC(=O)CNC(=O)[C@H](Cc2ccc3ccccc3c2)NC(=O)[C@H](CCCNC(=N)N)NC(=O)[C@H]1CCCNC(=O)c1ccc(CNC(=O)CCC(C(=O)O)N2CCN(CC(=O)O)CCN(CC(=O)O)CC2)cc1` (some centres unmarked) [Compound 4] (cyclo([2Nal]G[dY][dNMeOrn]([4Amb-NODAGA])R)), the IC50 was 275 ± 106 nM.
With `CN1C(=O)[C@@H](Cc2ccc(O)cc2)NC(=O)CNC(=O)[C@H](Cc2ccc3ccccc3c2)NC(=O)[C@H](CCCNC(=N)N)NC(=O)[C@H]1CCCNC(=O)c1ccc(CNC(=O)CCC(C(=O)O)N2CCN(CC(=O)O)CCN(CC(=O)O)CCN(CC(=O)O)CC2)cc1` (some centres unmarked) [Compound 2] (cyclo([2Nal]G[dY][dNMeOrn]([4Amb-DOTAGA])R)) the IC50 was 654 ± 263 nM.

Same assay, conditions: Jurkat T-cells, 4 × 10^5 cells per vial, app. 0.1 nM [125I]FC131, 120 min incubation, mean ± SD (n = 3)
For `CN1C(=O)[C@@H](Cc2ccc(O)cc2)NC(=O)CNC(=O)[C@H](Cc2ccc3ccccc3c2)NC(=O)[C@H](CCCNC(=N)N)NC(=O)[C@H]1CCCNC(=O)c1ccc(CNC(=O)CCC(C(=O)O)N2CCN(CC(=O)O)CCN(CC(=O)O)CCN(CC(=O)O)CC2)cc1` (some centres unmarked) [[^natBi^3+]2] [metal not drawn] (cyclo([2Nal]G[dY][dNMeOrn]([4Amb-DOTAGA])R)), the IC50 was 29.4 ± 7.6 nM.
`CN1C(=O)[C@@H](Cc2ccc(O)cc2)NC(=O)CNC(=O)[C@H](Cc2ccc3ccccc3c2)NC(=O)[C@H](CCCNC(=N)N)NC(=O)[C@H]1CCCNC(=O)c1ccc(CNC(=O)CCC(C(=O)O)N2CCN(CC(=O)O)CCN(CC(=O)O)CC2)cc1` (some centres unmarked) [[^natCu^2+]4] [metal not drawn] (cyclo([2Nal]G[dY][dNMeOrn]([4Amb-NODAGA])R)) gave an IC50 of 343 ± 10 nM.
`CN1C(=O)[C@@H](Cc2ccc(O)cc2)NC(=O)CNC(=O)[C@H](Cc2ccc3ccccc3c2)NC(=O)[C@H](CCCNC(=N)N)NC(=O)[C@H]1CCCNC(=O)c1ccc(CNC(=O)CN2CCN(CC(=O)O)CCN(CC(=O)O)CC2)cc1` [[^natCu^2+]3] [metal not drawn] (cyclo([2Nal]G[dY][dNMeOrn]([4Amb-NOTA])R)) showed an IC50 of 46.1 ± 26 nM.
In the case of `CN1C(=O)[C@@H](Cc2ccc(O)cc2)NC(=O)CNC(=O)[C@H](Cc2ccc3ccccc3c2)NC(=O)[C@H](CCCNC(=N)N)NC(=O)[C@H]1CCCNC(=O)c1ccc(CNC(=O)CN2CCN(CC(=O)O)CCN(CC(=O)O)CCN(CC(=O)O)CC2)cc1` [[^natCu^2+]1] [metal not drawn] (cyclo([dY][dNMeOrn]([4Amb-DOTA])R[2Nal]G)), the IC50 is reported as 131 ± 11 nM.
Work on `CN1C(=O)[C@@H](Cc2ccc(O)cc2)NC(=O)CNC(=O)[C@H](Cc2ccc3ccccc3c2)NC(=O)[C@H](CCCNC(=N)N)NC(=O)[C@H]1CCCNC(=O)c1ccc(CNC(=O)CN2CCN(CC(=O)O)CCN(CC(=O)O)CCN(CC(=O)O)CC2)cc1` [[^natLu^3+]1] [metal not drawn] (cyclo([dY][dNMeOrn]([4Amb-DOTA])R[2Nal]G)) yielded an IC50 of 40.9 ± 12 nM.
In the case of `CN1C(=O)[C@@H](Cc2ccc(O)cc2)NC(=O)CNC(=O)[C@H](Cc2ccc3ccccc3c2)NC(=O)[C@H](CCCNC(=N)N)NC(=O)[C@H]1CCCNC(=O)c1ccc(CNC(=O)CN2CCN(CC(=O)O)CCN(CC(=O)O)CC2)cc1` [[^natGa^3+]3] [metal not drawn] (cyclo([2Nal]G[dY][dNMeOrn]([4Amb-NOTA])R)), the IC50 is reported as 17.8 ± 7.7 nM.
`CN1C(=O)[C@@H](Cc2ccc(O)cc2)NC(=O)CNC(=O)[C@H](Cc2ccc3ccccc3c2)NC(=O)[C@H](CCCNC(=N)N)NC(=O)[C@H]1CCCNC(=O)c1ccc(CNC(=O)CCC(C(=O)O)N2CCN(CC(=O)O)CCN(CC(=O)O)CCN(CC(=O)O)CC2)cc1` (some centres unmarked) [[^natY^3+]2] [metal not drawn] (cyclo([2Nal]G[dY][dNMeOrn]([4Amb-DOTAGA])R)) showed an IC50 of 126 ± 89 nM.
With `CN1C(=O)[C@@H](Cc2ccc(O)cc2)NC(=O)CNC(=O)[C@H](Cc2ccc3ccccc3c2)NC(=O)[C@H](CCCNC(=N)N)NC(=O)[C@H]1CCCNC(=O)c1ccc(CNC(=O)CCC(C(=O)O)N2CCN(CC(=O)O)CCN(CC(=O)O)CC2)cc1` (some centres unmarked) [[^natGa^3+]4] [metal not drawn] (cyclo([2Nal]G[dY][dNMeOrn]([4Amb-NODAGA])R)) the IC50 was 342 ± 72 nM.
In the case of `CC(=O)N(O)CCCCCNC(=O)CCC(=O)N(O)CCCCCNC(=O)CCC(=O)N(O)CCCCCNC(=S)Nc1ccc(NC(=S)NCc2ccc(C(=O)NCCC[C@@H]3C(=O)N[C@@H](CCCNC(=N)N)C(=O)N[C@@H](Cc4ccc5ccccc5c4)C(=O)NCC(=O)N[C@H](Cc4ccc(O)cc4)C(=O)N3C)cc2)cc1` [[^natZr^4+]8, metal not drawn] (cyclo([2Nal]G[dY][dNMeOrn]([4Amb-DFO(CSNHC6H4NHCS)])R)), the IC50 is reported as 148 ± 27 nM.
With `CN1C(=O)[C@@H](Cc2ccc(O)cc2)NC(=O)CNC(=O)[C@H](Cc2ccc3ccccc3c2)NC(=O)[C@H](CCCNC(=N)N)NC(=O)[C@H]1CCCNC(=O)c1ccc(CNC(=O)CCC(C(=O)O)N2CCN(CC(=O)O)CCN(CC(=O)O)CCN(CC(=O)O)CC2)cc1` (some centres unmarked) [[^natGa^3+]2] [metal not drawn] (cyclo([2Nal]G[dY][dNMeOrn]([4Amb-DOTAGA])R)) the IC50 was 380 ± 102 nM.
Work on `CN1C(=O)[C@@H](Cc2ccc(O)cc2)NC(=O)CNC(=O)[C@H](Cc2ccc3ccccc3c2)NC(=O)[C@H](CCCNC(=N)N)NC(=O)[C@H]1CCCNC(=S)Nc1ccc(CN2CCN(CC(=O)O)CCN(CC(=O)O)CC2)cc1` [[^natF]AlF-5] (cyclo([2Nal]G[dY][dNMeOrn](X2)R)) yielded an IC50 of 329 ± 49 nM.
Compound `CN1C(=O)[C@@H](Cc2ccc(O)cc2)NC(=O)CNC(=O)[C@H](Cc2ccc3ccccc3c2)NC(=O)[C@H](CCCNC(=N)N)NC(=O)[C@H]1CCCNC(=O)c1ccc(CNC(=O)CN2CCN(CC(=O)O)CCN(CC(=O)O)CC2)cc1` [[^natF]AlF-3] (cyclo([2Nal]G[dY][dNMeOrn]([4Amb-NOTA])R)) has an IC50 of 220 ± 57 nM.
In the case of `CN1C(=O)[C@@H](Cc2ccc(O)cc2)NC(=O)CNC(=O)[C@H](Cc2ccc3ccccc3c2)NC(=O)[C@H](CCCNC(=N)N)NC(=O)[C@H]1CCCNC(=O)c1ccc(CNC(=O)CCC(C(=O)O)N2CCN(CC(=O)O)CCN(CC(=O)O)CCN(CC(=O)O)CC2)cc1` (some centres unmarked) [[^natLu^3+]2] [metal not drawn] (cyclo([2Nal]G[dY][dNMeOrn]([4Amb-DOTAGA])R)), the IC50 is reported as 188 ± 2.8 nM.
Work on `CN1C(=O)[C@@H](Cc2ccc(O)cc2)NC(=O)CNC(=O)[C@H](Cc2ccc3ccccc3c2)NC(=O)[C@H](CCCNC(=N)N)NC(=O)[C@H]1CCCNC(=O)c1ccc(CNC(=O)CN2CCN(CC(=O)O)CCN(CC(=O)O)CCN(CC(=O)O)CC2)cc1` [[^natBi^3+]1] [metal not drawn] (cyclo([dY][dNMeOrn]([4Amb-DOTA])R[2Nal]G)) yielded an IC50 of 22.1 ± 7 nM.
`CN1C(=O)[C@@H](Cc2ccc(O)cc2)NC(=O)CNC(=O)[C@H](Cc2ccc3ccccc3c2)NC(=O)[C@H](CCCNC(=N)N)NC(=O)[C@H]1CCCNC(=O)c1ccc(CNC(=O)CCC(C(=O)O)N2CCN(CC(=O)O)CCN(CC(=O)O)CCN(CC(=O)O)CC2)cc1` (some centres unmarked) [[^natCu^2+]2] [metal not drawn] (cyclo([2Nal]G[dY][dNMeOrn]([4Amb-DOTAGA])R)) gave an IC50 of 1160 ± 220 nM.

Test system: hCXCR4
Assay: not given
Conditions: read-out: affinity towards hCXCR4; cited from earlier work
In the case of “cyclo(-D-Tyr-N-Me-D-Orn(aminomethylbenzoyl (AMB)-DOTA)-L-Arg-L-2-Nal-Gly-) [[^68Ga]pentixafor]”, the IC50 is listed as 5 nM.
